In the assay the test system is 4T1 tumor. Nature of the assay: 4T1 tumor model: ENPP1 inhibition with IR, cGAMP and anti-CTLA-4. It is filed as in vivo, mouse. As to conditions: 20 Gy IR then intratumoral 10 μg cGAMP on day 2, 4, 7.

In the case of `Nc1nc2c(ncn2[C@@H]2O[C@@H]3COP(=O)(O)O[C@H]4[C@@H](O)[C@H](n5cnc6c(N)ncnc65)O[C@@H]4COP(=O)(O)O[C@@H]2[C@@H]3O)c(=O)[nH]1` [cGAMP, cyclic guanosine monophosphate-adenosine monophosphate], the “effect over IR treatment” value is recorded as “had no effect over IR treatment”.

The values above are taken from patent US11707471B2, “ENPP1 inhibitors and their use for the treatment of cancer” (The Board of Trustees of the Leland Stanford Junior …, priority 2017, dated 2023).
